The values below come from article PMC10269775, “Penicillin-Binding Protein Occupancy Dataset for 18 β-Lactams and 4 β-Lactamase Inhibitors in Neisseria gonorrhoeae” (Microbiology Spectrum, 2023).

The test system of assay [1] is N. gonorrhoeae ATCC 49226. Nature of the assay: MIC, CLSI broth microdilution. Format: cell-based, Neisseria gonorrhoeae. To be noted: for MIC: Neisseria gonorrhoeae, ATCC49226, strain ATCC 49226.
The target in assay [2] is T1, PBP1 (Neisseria gonorrhoeae, UniProt O05131, A375T/F666S).
T1 construct: endogenous in cells; host or cells: N. gonorrhoeae ATCC 49226, isolated membrane preparation
Kind of assay: PBP-binding assay (Bocillin FL) in isolated membrane preparations. Also noted: species or system Neisseria gonorrhoeae ATCC 49226. The text has this:
(§1) Bacterial membranes were collected by ultracentrifugation.

The subject of assay [3] is N. gonorrhoeae ATCC 19424. Nature of the assay: MIC, CLSI broth microdilution. Format: cell-based. As to conditions: Neisseria gonorrhoeae, ATCC19424, strain ATCC 19424.
The target of assay [4] is T2, PBP1 (Neisseria gonorrhoeae, UniProt O05131).
T2 construct: endogenous in cells; host or cells: N. gonorrhoeae ATCC 19424, isolated membrane preparation
Nature of the assay: PBP-binding assay (Bocillin FL) in isolated membrane preparations. As to conditions: strain ATCC 19424.
Description: as §1

Assay [5] has as its target T3, PBP2 (Neisseria gonorrhoeae, UniProt P08149, A510V/A516G/A574V/F504L/H541N/I556V/I566V/K555Q/P552V).
T3 construct: endogenous in cells; host or cells: N. gonorrhoeae ATCC 49226, isolated membrane preparation
Nature of the assay: biochemical. Format: binding, Neisseria gonorrhoeae ATCC 49226.

For assay [6], the target named is T4, PBP2 (Neisseria gonorrhoeae, UniProt P08149, H541N).
T4 construct: endogenous in cells; host or cells: N. gonorrhoeae ATCC 19424, isolated membrane preparation
Kind of assay: PBP-binding assay (Bocillin FL) in isolated membrane preparations. Also noted: species or system Neisseria gonorrhoeae ATCC 19424. To be noted: membrane preparation, 30 min drug then Bocillin FL.

The target in assay [7] is PBP1, PBP2 and PBP3 (Neisseria gonorrhoeae, UniProt P08149, A510V/A516G/A574V/F504L/H541N/I556V/I566V/K555Q/P552V). Format: binding, Neisseria gonorrhoeae ATCC 49226. To be noted: read-out: min. IC50 (minimum observed IC50 value); strain ATCC 49226.
Assay [8] addresses PBP1, PBP2 and PBP3 (Neisseria gonorrhoeae, UniProt P08149, H541N). Format: binding, Neisseria gonorrhoeae ATCC 19424. As to conditions: read-out: min. IC50 (minimum observed IC50 value); strain ATCC 19424.
[9] abbreviates: IC50 PBP1, strain ATCC 49226, membrane preparation, 30 min drug then Bocillin FL.
The mark [10] stands for this setting: membrane preparation, 30 min drug then Bocillin FL, read-out: IC50 PBP1 (converted).
[11] abbreviates: IC50 PBP2, strain ATCC 49226, membrane preparation, 30 min drug then Bocillin FL.

≈ marks a conversion by molar mass, not a printed value. Like-named read-outs stand apart in the source and are kept apart here.

Take `CO[C@@]1(NC(=O)Cc2cccs2)C(=O)N2C(C(=O)O)=C(COC(N)=O)CS[C@@H]21` [FOX, cefoxitin]: the MIC in assay [1] (read-out: MIC) amounted to 0.5 µg/mL (≈ 1.17 µM); in assay [1] (read-out: MIC (Table S1)), 0.5 µg/mL (≈ 1.17 µM); in assay [3] (read-out: MIC), 0.25 µg/mL (≈ 0.585 µM); in assay [3] (read-out: MIC (Table S1)), 0.25 µg/mL (≈ 0.585 µM). Also, the IC50 at PBP1 [2] (setting [9]) was 2.13 µM; at PBP1 [4] (setting [10]) it was 1.36 µM; against PBP2 [5] (setting [11]) it was > 4680 nM; on PBP2 [6] (IC50 PBP2, strain ATCC 19424), 912 nM.
With `CCN1CCN(C(=O)N[C@@H](C(=O)N[C@@H]2C(=O)N3[C@@H]2SC(C)(C)[C@@H]3C(=O)O)c2ccccc2)C(=O)C1=O` [PIP, piperacillin], the “MIC increase for strain ATCC 49226” value in assay [1] (ATCC 49226 versus ATCC 19424) worked out at 125 fold. Also, the values for the MIC in assay [1] (read-out: MIC (Table S1)), in assay [3] (read-out: MIC) and in assay [3] (read-out: MIC (Table S1)) were 0.125 µg/mL (≈ 0.242 µM), 0.001 µg/mL (≈ 0.00193 µM) and 0.001 µg/mL (≈ 0.00193 µM), respectively. Also, the IC50 on PBP1 [2] (setting [9]) is > 3.86 µM; at PBP1 [4] (setting [10]), > 3.86 µM; on PBP1, PBP2 and PBP3 [7], 19.3 nM; at PBP1, PBP2 and PBP3 [8], 38.6 nM; against PBP2 [5] (setting [11]), 19.3 nM; on PBP2 [6] (strain ATCC 19424, read-out: IC50 PBP2 (converted)), 38.6 nM.
Consider `CC1(C)S[C@@H]2[C@H](NC(=O)C(C(=O)O)c3ccccc3)C(=O)N2[C@H]1C(=O)O` (some centres unmarked) [CAR, carbenicillin], for which the MIC is 0.5 µg/mL (≈ 1.32 µM) in assay [1] (read-out: MIC), 0.5 µg/mL (≈ 1.32 µM) in assay [1] (read-out: MIC (Table S1)), 0.032 µg/mL (≈ 0.0846 µM) in assay [3] (read-out: MIC) and 0.032 µg/mL (≈ 0.0846 µM) in assay [3] (read-out: MIC (Table S1)). Also, the IC50 on PBP1 [2] (IC50 PBP1 (Table S1), strain ATCC 49226) was > 5.29 µM; on PBP1 [4] (setting [10]), > 5.29 µM; on PBP1, PBP2 and PBP3 [8] it was 344 nM; against PBP2 [5] (IC50 PBP2 (Table S1), strain ATCC 49226) it was > 5290 nM; at PBP2 [6] (IC50 PBP2, strain ATCC 19424), 344 nM.
Consider `CO/N=C(\C(=O)N[C@@H]1C(=O)N2C(C(=O)O)=C(CSc3nc(=O)c(=O)[nH]n3C)CS[C@H]12)c1csc(N)n1` [CRO, ceftriaxone], for which the MIC in assay [1] (read-out: MIC) is 0.002 µg/mL (≈ 0.00361 µM); in assay [1] (read-out: MIC (Table S1)), 0.008 µg/mL (≈ 0.0144 µM); in assay [3] (read-out: MIC), 0.004 µg/mL (≈ 0.00721 µM); in assay [3] (read-out: MIC (Table S1)), 0.004 µg/mL (≈ 0.00721 µM). Moreover, the results for the IC50 on PBP1 [2] (setting [9]) and on PBP1 [4] (setting [10]) were 3.43 µM and 3.37 µM, respectively.
Consider `CC1(C)S[C@@H]2[C@H](/N=C/N3CCCCCC3)C(=O)N2[C@H]1C(=O)O` [MEC, amdinocillin], for which the MIC in assay [1] (read-out: MIC) worked out at 8 µg/mL (≈ 24.6 µM); in assay [1] (read-out: MIC (Table S1)) it was 8 µg/mL (≈ 24.6 µM); in assay [3] (read-out: MIC) it was 1 µg/mL (≈ 3.07 µM); in assay [3] (read-out: MIC (Table S1)) it was 1 µg/mL (≈ 3.07 µM). The IC50 at PBP1 [4] (setting [10]) was 313 µM; on PBP1 [4] (read-out: IC50 PBP1 (Table S1) (converted)), 314 µM; at PBP1, PBP2 and PBP3 [8], 4090 nM; on PBP2 [6] (IC50 PBP2, strain ATCC 19424), 4090 nM.
For `CO/N=C(\C(=O)N[C@@H]1C(=O)N2C(C(=O)[O-])=C(C[N+]3(C)CCCC3)CS[C@H]12)c1csc(N)n1` [FEP, cefepime], the minimal inhibitory concentration (MIC) in assay [1] (read-out: MIC) amounted to 0.032 µg/mL (≈ 0.0666 µM); in assay [1] (read-out: MIC (Table S1)), 0.032 µg/mL (≈ 0.0666 µM); in assay [3] (read-out: MIC), 0.008 µg/mL (≈ 0.0166 µM); in assay [3] (read-out: MIC (Table S1)), 0.008 µg/mL (≈ 0.0166 µM). In addition, the IC50 on PBP1 [2] (setting [9]) and on PBP1 [4] (setting [10]) was > 4.16 µM in each case.
